Test results: patent US7863289B2, “Compounds and methods for kinase modulation, and indications therefor” (Plexxikon, Inc., priority 2006, dated 2011)

How the values were obtained:
Type in all cases: biochemical
Kit = Kit (Homo sapiens, UniProt P10721); assay: Kinase activity assay, Kit; conditions: under the test conditions employed; read-out: activity toward kinase Kit, IC50
Excerpt: (§1) Assays for the activity of kinases, including, but not limited to, B-Raf, B-Raf V600E, B-Raf […] and c-Raf-1 are known in the art, for example as described in U.S. patent application Ser. No. 11/473,347 (see Iso, PCT publication WO2007002433), the disclosure of which is hereby incorporated by reference in its entirety.

Fms = Fms (Homo sapiens, UniProt P07333); assay: Kinase activity assay, Fms; conditions: under the test conditions employed; read-out: activity toward kinase Fms, IC50
Excerpt: as §1

Kdr = Kdr (Homo sapiens, UniProt P35968); assay: Kinase activity assay, Kdr; conditions: under the test conditions employed; read-out: activity toward kinase Kdr, IC50
Excerpt: as §1

c-Raf-1 = c-Raf-1 (Homo sapiens, UniProt P04049); assay: Kinase activity assay, c-Raf-1; conditions: under the test conditions employed; read-out: activity toward kinase c-Raf-1, IC50
Excerpt: as §1

B-Raf V600E = B-Raf V600E (Homo sapiens, UniProt P15056, V600E); assay: Kinase activity assay, B-Raf V600E; conditions: under the test conditions employed; read-out: activity toward kinase B-Raf V600E, IC50
Excerpt: as §1

B-Raf = B-Raf (Homo sapiens, UniProt P15056); assay: Kinase activity assay, B-Raf; conditions: under the test conditions employed; read-out: activity toward kinase B-Raf, IC50
Excerpt: as §1

Src = Src (Homo sapiens, UniProt P12931); assay: Kinase activity assay, Src; conditions: under the test conditions employed; read-out: activity toward kinase Src, IC50
Excerpt: as §1

Btk = Btk (Homo sapiens, UniProt Q06187); assay: Kinase activity assay, Btk; conditions: under the test conditions employed; read-out: activity toward kinase Btk, IC50
Excerpt: as §1

Measured: IC50

Fms, sequence (P07333 20-972): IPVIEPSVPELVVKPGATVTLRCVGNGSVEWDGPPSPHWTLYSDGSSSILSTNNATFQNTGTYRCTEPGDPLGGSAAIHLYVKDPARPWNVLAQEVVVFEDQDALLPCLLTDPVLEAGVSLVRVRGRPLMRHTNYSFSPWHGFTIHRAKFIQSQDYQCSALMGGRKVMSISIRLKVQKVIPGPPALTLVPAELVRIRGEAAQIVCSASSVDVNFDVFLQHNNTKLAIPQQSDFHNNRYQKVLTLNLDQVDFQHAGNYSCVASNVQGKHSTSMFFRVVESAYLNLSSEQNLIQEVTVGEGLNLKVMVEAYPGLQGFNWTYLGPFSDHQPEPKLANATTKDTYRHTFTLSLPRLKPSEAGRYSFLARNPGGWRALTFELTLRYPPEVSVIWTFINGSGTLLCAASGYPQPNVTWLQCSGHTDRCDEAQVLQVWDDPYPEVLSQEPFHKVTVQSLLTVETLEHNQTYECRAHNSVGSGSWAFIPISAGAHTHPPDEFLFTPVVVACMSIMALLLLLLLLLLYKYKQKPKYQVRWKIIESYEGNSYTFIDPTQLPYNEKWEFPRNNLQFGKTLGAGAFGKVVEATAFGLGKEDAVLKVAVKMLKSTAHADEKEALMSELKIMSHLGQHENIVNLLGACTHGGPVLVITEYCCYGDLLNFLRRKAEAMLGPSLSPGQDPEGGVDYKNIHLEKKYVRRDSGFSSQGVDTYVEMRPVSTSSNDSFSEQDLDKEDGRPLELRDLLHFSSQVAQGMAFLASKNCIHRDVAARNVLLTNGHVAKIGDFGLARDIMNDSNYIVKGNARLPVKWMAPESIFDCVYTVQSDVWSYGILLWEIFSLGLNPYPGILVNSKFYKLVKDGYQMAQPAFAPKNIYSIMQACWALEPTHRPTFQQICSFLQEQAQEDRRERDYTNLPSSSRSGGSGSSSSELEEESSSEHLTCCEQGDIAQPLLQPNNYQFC
Kdr, sequence (P35968 20-1356): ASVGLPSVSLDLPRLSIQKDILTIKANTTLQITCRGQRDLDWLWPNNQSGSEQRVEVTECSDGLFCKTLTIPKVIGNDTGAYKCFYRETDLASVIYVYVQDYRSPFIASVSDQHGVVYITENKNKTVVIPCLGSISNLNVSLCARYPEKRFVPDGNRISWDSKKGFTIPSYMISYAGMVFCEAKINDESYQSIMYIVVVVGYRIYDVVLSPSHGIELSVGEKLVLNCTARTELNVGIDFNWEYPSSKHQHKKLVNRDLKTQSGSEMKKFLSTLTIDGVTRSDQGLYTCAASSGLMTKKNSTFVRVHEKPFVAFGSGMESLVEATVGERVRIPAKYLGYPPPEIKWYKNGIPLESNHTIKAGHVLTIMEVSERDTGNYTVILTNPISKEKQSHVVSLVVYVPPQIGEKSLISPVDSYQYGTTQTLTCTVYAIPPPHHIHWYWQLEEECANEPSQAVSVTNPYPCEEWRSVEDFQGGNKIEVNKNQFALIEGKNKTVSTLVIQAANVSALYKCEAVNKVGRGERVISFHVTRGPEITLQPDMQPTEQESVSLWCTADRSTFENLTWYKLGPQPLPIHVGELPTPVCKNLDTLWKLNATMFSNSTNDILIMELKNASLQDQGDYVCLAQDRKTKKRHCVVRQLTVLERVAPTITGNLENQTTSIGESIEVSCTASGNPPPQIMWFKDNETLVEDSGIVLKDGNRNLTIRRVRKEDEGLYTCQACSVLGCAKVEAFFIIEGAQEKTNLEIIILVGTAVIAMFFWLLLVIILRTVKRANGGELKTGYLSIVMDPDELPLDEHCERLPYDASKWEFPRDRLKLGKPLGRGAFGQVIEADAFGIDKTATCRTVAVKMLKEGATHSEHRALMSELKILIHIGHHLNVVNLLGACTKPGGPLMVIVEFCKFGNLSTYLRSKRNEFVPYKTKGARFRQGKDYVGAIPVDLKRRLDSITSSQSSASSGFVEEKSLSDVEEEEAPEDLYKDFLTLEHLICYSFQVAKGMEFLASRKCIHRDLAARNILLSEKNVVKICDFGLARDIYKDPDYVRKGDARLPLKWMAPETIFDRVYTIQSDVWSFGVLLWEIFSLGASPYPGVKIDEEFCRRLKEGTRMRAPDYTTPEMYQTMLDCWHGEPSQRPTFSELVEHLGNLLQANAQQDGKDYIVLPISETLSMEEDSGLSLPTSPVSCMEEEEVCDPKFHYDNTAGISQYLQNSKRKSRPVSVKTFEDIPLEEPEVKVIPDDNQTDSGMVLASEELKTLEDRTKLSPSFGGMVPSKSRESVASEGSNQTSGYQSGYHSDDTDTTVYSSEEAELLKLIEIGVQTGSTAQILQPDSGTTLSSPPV
B-Raf V600E, sequence (P15056 whole entry V600E): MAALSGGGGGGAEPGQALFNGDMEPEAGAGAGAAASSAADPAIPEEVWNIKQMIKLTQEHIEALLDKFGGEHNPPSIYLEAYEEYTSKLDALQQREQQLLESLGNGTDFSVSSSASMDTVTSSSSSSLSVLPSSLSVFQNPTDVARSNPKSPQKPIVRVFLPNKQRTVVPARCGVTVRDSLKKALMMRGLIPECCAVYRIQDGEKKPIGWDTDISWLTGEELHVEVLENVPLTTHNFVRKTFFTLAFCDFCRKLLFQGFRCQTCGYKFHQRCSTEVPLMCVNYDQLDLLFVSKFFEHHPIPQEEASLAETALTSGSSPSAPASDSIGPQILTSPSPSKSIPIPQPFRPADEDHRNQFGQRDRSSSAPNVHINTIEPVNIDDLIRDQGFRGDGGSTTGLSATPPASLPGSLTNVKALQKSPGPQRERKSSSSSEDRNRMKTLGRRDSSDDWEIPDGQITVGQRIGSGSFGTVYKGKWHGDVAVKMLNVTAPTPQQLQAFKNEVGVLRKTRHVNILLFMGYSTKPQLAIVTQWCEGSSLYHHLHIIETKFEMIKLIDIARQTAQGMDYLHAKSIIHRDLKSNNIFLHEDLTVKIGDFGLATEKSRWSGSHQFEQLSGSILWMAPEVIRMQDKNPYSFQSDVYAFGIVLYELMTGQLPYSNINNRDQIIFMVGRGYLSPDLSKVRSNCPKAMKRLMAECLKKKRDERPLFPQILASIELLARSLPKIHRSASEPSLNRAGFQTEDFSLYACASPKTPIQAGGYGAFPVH
Kit, sequence (P10721 26-976): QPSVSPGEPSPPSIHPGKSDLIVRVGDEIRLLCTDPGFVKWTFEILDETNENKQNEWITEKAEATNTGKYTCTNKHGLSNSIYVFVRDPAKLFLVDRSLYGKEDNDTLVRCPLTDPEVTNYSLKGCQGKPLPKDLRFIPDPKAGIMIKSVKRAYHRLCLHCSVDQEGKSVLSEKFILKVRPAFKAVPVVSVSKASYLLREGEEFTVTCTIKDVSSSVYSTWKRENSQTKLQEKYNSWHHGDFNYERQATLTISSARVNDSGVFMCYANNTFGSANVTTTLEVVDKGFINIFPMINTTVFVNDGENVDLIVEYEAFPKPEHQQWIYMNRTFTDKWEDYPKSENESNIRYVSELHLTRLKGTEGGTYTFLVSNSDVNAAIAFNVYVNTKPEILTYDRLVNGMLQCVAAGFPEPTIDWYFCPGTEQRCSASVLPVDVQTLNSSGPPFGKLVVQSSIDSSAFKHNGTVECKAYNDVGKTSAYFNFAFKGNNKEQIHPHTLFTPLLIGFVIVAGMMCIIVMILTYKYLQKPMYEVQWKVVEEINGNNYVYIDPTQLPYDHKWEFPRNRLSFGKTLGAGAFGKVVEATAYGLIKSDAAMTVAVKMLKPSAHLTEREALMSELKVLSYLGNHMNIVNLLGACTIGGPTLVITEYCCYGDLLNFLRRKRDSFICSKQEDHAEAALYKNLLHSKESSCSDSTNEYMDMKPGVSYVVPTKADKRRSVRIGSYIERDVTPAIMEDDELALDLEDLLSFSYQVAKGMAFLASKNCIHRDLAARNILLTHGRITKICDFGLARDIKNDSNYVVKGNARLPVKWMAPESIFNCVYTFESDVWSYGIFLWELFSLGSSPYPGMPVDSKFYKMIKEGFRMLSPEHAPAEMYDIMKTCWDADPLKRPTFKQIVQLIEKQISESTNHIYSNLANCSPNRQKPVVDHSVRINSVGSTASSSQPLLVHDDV
c-Raf-1, sequence (P04049 whole entry): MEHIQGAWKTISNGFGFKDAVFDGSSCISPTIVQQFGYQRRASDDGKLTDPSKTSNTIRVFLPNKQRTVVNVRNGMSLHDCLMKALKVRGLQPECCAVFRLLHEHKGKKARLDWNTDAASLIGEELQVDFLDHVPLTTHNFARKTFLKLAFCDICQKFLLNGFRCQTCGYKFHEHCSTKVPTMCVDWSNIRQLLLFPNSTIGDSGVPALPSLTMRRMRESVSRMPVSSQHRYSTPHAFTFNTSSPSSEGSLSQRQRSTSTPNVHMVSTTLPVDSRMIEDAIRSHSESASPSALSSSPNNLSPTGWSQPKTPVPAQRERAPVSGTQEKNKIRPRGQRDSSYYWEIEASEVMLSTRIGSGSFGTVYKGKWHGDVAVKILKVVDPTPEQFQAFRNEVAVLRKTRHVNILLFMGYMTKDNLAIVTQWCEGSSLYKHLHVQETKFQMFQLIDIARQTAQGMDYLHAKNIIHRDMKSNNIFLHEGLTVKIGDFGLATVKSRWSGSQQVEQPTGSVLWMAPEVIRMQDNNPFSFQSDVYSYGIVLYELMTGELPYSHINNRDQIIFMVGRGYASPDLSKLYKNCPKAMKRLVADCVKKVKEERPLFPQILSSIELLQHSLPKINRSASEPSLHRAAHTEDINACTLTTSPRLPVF
B-Raf, sequence (P15056 whole entry): as the sequence (P15056 whole entry V600E) above, with E600V counted along it

O=C(c1c(F)ccc(NS(=O)(=O)c2csc3ccccc23)c1F)c1c[nH]c2ncc(Cl)cc12 [Compound P-0001, Benzo[b]thiophene-3-sulfonic acid [3-(5-chloro-1H-pyrrolo[2,3-b]pyridine-3-carbonyl)-2,4-difluoro-phenyl]-amide]
not listed: Src | Btk
≤ 10 µM: all other assays above

Cc1cc(S(=O)(=O)Nc2ccc(F)c(C(=O)c3c[nH]c4ncc(Cl)cc34)c2F)c(C(F)(F)F)o1 [Compound P-0002, 5-Methyl-2-trifluoromethyl-furan-3-sulfonic acid [3-(5-chloro-1H-pyrrolo[2,3-b]pyridine-3-carbonyl)-2,4-difluoro-phenyl]-amide]
not listed: Btk
≤ 10 µM: all other assays above

O=C(c1c(F)ccc(NS(=O)(=O)c2ccc(-n3cccn3)cc2)c1F)c1c[nH]c2ncc(Cl)cc12 [Compound P-0008, N-[3-(5-Chloro-1H-pyrrolo[2,3-b]pyridine-3-carbonyl)-2,4-difluoro-phenyl]-4-pyrazol-1-yl-benzenesulfonamide]
≤ 10 µM: Kit | Kdr | c-Raf-1 | Src

O=C(c1c(F)ccc(NS(=O)(=O)c2ccc3ncsc3c2)c1F)c1c[nH]c2ncc(Cl)cc12 [Compound P-0009, Benzothiazole-6-sulfonic acid [3-(5-chloro-1H-pyrrolo[2,3-b]pyridine-3-carbonyl)-2,4-difluoro-phenyl]-amide]
not listed: Kdr | Btk
≤ 10 µM: all other assays above

Cn1cc(S(=O)(=O)Nc2ccc(F)c(C(=O)c3c[nH]c4ncc(Cl)cc34)c2F)c(C(F)(F)F)n1 [Compound P-0010, 1-Methyl-3-trifluoromethyl-1H-pyrazole-4-sulfonic acid [3-(5-chloro-1H-pyrrolo[2,3-b]pyridine-3-carbonyl)-2,4-difluoro-phenyl]-amide]
≤ 10 µM: Kit | Fms | Kdr | Src

CC(C)Oc1ccc(S(=O)(=O)Nc2ccc(F)c(C(=O)c3c[nH]c4ncc(Cl)cc34)c2F)cc1 [Compound P-0011, N-[3-(5-Chloro-1H-pyrrolo[2,3-b]pyridine-3-carbonyl)-2,4-difluoro-phenyl]-4-isopropoxy-benzenesulfonamide]
not listed: B-Raf V600E | Btk
≤ 10 µM: all other assays above

O=C(c1c(F)ccc(NS(=O)(=O)c2ccc3nsnc3c2)c1F)c1c[nH]c2ncc(Cl)cc12 [Compound P-0013, Benzo[1,2,5]thiadiazoe-5-sulfonic acid [3-(5-chloro-1H-pyrrolo[2,3-b]pyridine-3-carbonyl)-2,4-difluoro-phenyl]-amide]
≤ 10 µM: all assays above

CC(C)(C)c1ccc(S(=O)(=O)Nc2ccc(F)c(C(=O)c3c[nH]c4ncc(Cl)cc34)c2F)cc1 [Compound P-0014, 4-tert-Butyl-N-[3-(5-chloro-1H-pyrrolo[2,3-b]pyridine-3-carbonyl)-2,4-difluoro-phenyl]-benzenesulfonamide]
not listed: Src | Btk
≤ 10 µM: all other assays above

CCCc1ccc(S(=O)(=O)Nc2ccc(F)c(C(=O)c3c[nH]c4ncc(Cl)cc34)c2F)cc1 [Compound P-0015, N-[3-(5-Chloro-1H-pyrrolo[2,3-b]pyridine-3-carbonyl)-2,4-difluoro-phenyl]-4-propyl-benzenesulfonamide]
not listed: Kdr | Btk
≤ 10 µM: all other assays above

COCCOc1cnc2[nH]cc(C(=O)c3c(F)ccc(NS(=O)(=O)c4ccc(C(C)C)cc4)c3F)c2c1 [Compound P-0018, N-{2,4-Difluoro-3-[5-(2-methoxy-ethoxy)-1H-pyrrolo[2,3-b]pyridine-3-carbonyl]-phenyl}-4-isopropyl-benzenesulfonamide]
≤ 10 µM: Kit | Kdr | c-Raf-1 | Src | B-Raf

Cc1cnc(-c2cnc3[nH]cc(C(=O)c4c(F)ccc(NS(=O)(=O)c5cccc(OC(F)F)c5)c4F)c3c2)[nH]1 [Compound P-0024, 3-Difluoromethoxy-N-{2,4-difluoro-3-[5-(5-methyl-1H-imidazol-2-yl)-1H-pyrrolo[2,3-b]pyridine-3-carbonyl]-phenyl}-benzenesulfonamide]
not listed: c-Raf-1
≤ 10 µM: all other assays above

CCCc1ccc(S(=O)(=O)Nc2ccc(F)c(C(=O)c3c[nH]c4ncc(-c5ncc(C)n5C)cc34)c2F)cc1 [Compound P-0027, N-{3-[5-(1,5-Dimethyl-1H-imidazol-2-yl)-1H-pyrrolo[2,3-b]pyridine-3-carbonyl]-2,4-difluoro-phenyl}-4-propyl-benzenesulfonamide]
≤ 10 µM: Kit | Fms | Kdr | B-Raf

Cc1ccc(S(=O)(=O)Nc2ccc(F)c(C(=O)c3c[nH]c4ncc(Cl)cc34)c2F)s1 [Compound P-0028, 5-Methyl-thiophene-2-sulfonic acid [3-(5-chloro-1H-pyrrolo[2,3-b]pyridine-3-carbonyl)-2,4-difluoro-phenyl]-amide]
not listed: c-Raf-1 | Btk
≤ 10 µM: all other assays above

CCNC(=O)CCc1cnc2[nH]cc(C(=O)c3c(F)ccc(NS(=O)(=O)c4ccc(C(F)(F)F)cc4)c3F)c2c1 [Compound P-0035, 3-{3-[2,6-Difluoro-3-(4-trifluoromethyl-benzenesulfonylamino)-benzoyl]-1H-pyrrolo[2,3-b]pyridin-5-yl}-N-ethyl-propionamide]
≤ 10 µM: Kit | Fms | B-Raf V600E | B-Raf
